Test results from patent US12600709B2, “Nonpeptide somatostatin type 5 receptor agonists and uses thereof” (Crinetics Pharmaceuticals, Inc., priority 2019, dated 2026).
pEC50: −log10 of the molar value. Where two headings read alike, the source gives them in different places.

Columns and labels:
[1] = target: T1, human somatostatin receptor subtype 5 (Homo sapiens, UniProt P35346); assay: cAMP assay for SST5R (inhibition of cAMP in CHO-K1 cells); type: cell-based; settings: for pEC50: inhibition of cAMP via human SST5 receptor, read-out: SST5 potency; for Fold selectivity for SST5 vs SST2: class symbols, SST5 receptor over SST2 receptor
T1 construct: expressed in transfected cells
T1 sequence (P35346 whole entry): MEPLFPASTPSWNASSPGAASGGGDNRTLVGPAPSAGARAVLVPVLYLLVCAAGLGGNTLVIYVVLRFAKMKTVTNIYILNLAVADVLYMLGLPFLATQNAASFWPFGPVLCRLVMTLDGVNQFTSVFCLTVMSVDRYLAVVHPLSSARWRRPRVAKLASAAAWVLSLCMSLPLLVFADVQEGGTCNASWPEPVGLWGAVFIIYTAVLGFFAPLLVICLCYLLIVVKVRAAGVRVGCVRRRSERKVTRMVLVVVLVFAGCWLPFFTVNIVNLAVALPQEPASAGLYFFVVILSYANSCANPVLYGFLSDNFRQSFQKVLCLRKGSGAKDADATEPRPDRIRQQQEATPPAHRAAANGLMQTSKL
Method in brief: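 CHO-K1 cells stably expressing human SSTR5 were treated 20 min at 37 °C with compounds plus 1.6 μM NKH477 in HBSS, 0.5 mM HEPES pH 7.4, 0.1% BSA, 0.2 mM IBMX. Lysate cAMP measured by HTRF against a standard curve; EC50 from cAMP-versus-concentration plots.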

[2] = target: T2, human somatostatin receptor subtype 2 (Homo sapiens, UniProt P30874); assay: cAMP assay for SST2R (inhibition of cAMP in CHO-K1 cells); type: cell-based; settings: Table B; inhibition of cAMP via human SST2 receptor; read-out: SST2 potency
T2 construct: expressed in transfected cells
T2 sequence (P30874 whole entry): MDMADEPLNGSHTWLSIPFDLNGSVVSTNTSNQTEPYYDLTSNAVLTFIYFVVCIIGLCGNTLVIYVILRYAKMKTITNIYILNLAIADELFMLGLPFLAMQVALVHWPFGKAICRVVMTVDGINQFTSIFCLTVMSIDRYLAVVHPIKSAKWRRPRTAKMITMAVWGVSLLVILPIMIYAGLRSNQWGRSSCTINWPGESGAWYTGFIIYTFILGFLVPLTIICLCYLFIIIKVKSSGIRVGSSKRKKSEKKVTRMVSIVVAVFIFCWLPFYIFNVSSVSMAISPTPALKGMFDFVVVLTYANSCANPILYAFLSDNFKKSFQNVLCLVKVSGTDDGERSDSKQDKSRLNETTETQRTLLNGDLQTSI
Method in brief: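 Agonism read as decrease in NKH477 (1.6 μM)-stimulated cAMP: compounds applied 20 min, 37° C, with 0.2 mM IBMX, to CHO-K1 stably expressing human SSTR2. cAMP quantified in lysates by time-resolved fluorescence (HTRF kit, 1-24 h RT), standard-curve regression, then EC50.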

| SMILES | pEC50 ([1]; Table A) | Fold selectivity for SST5 vs SST2 ([1]; Table B) | pEC50 ([1]; Table B) | pEC50 [2] |
| --- | --- | --- | --- | --- |
| COc1ncc(C(=O)NC23CC(F)(C2)C3)c(N2CC[C@](C)(N)C2)c1-c1cc(F)cc(F)c1 [1-273, 4-[(3S)-3-amino-3-methylpyrrolidin-1-yl]-5-(3,5-difluorophenyl)-N-{3-fluorobicyclo[1.1.1]pentan-1-yl}-6-methoxypyridine-3-carboxamide] | > 8.00 | +++ (+++=>500) | > 8.00 | 6.00 to 7.00 |
| COc1cc(C#N)cc(-c2c(C)ncc(C(=O)N[C@@H](C)C(F)(F)F)c2N2CC[C@](C)(N)C2)c1 [1-275, 4-[(3S)-3-amino-3-methylpyrrolidin-1-yl]-5-(3-cyano-5-methoxyphenyl)-6-methyl-N-[(2S)-1,1,1-trifluoropropan-2-yl]pyridine-3-carboxamide] | > 8.00 | +++ (+++=>500) | > 8.00 | 6.00 to 7.00 |
| Cc1ncc(C(=O)N[C@@H](C)C(F)(F)F)c(N2CC[C@H](N)C2)c1-c1cc(F)cc(Cl)c1 [1-276, 4-[(3S)-3-aminopyrrolidin-1-yl]-5-(3-chloro-5-fluorophenyl)-6-methyl-N-[(2S)-1,1,1-trifluoropropan-2-yl]pyridine-3-carboxamide] | > 8.00 | ++ (++=100 to 499) | > 8.00 | 6.00 to 7.00 |
| Cc1ncc(C(=O)NC2CCC(F)(F)CC2)c(N2CC[C@H](N)C2)c1-c1cc(F)cc(Cl)c1 [1-277, 4-[(3S)-3-aminopyrrolidin-1-yl]-5-(3-chloro-5-fluorophenyl)-N-(4,4-difluorocyclohexyl)-6-methylpyridine-3-carboxamide] | > 8.00 | +++ (+++=>500) | > 8.00 | < 6.00 |
| Cc1ncc(C(=O)NC23CC(F)(C2)C3)c(N2CC[C@H](N)C2)c1-c1cc(F)cc(Cl)c1 [1-278, 4-[(3S)-3-aminopyrrolidin-1-yl]-5-(3-chloro-5-fluorophenyl)-N-{3-fluorobicyclo[1.1.1]pentan-1-yl}-6-methylpyridine-3-carboxamide] | > 8.00 | +++ (+++=>500) | > 8.00 | < 6.00 |
| Cc1ncc(C(=O)N[C@@H](C)C(F)(F)F)c(N2CC[C@](C)(N)C2)c1-c1ccc(F)c(F)c1 [1-279, 4-[(3S)-3-amino-3-methylpyrrolidin-1-yl]-5-(3,4-difluorophenyl)-6-methyl-N-[(2S)-1,1,1-trifluoropropan-2-yl]pyridine-3-carboxamide] | > 8.00 | +++ (+++=>500) | > 8.00 | 6.00 to 7.00 |
| COc1ncc(C(=O)N[C@@H](C)C2CC2)c(N2CC[C@H](N)C2)c1-c1cc(F)cc(Cl)c1 [1-282, 4-[(3S)-3-aminopyrrolidin-1-yl]-5-(3-chloro-5-fluorophenyl)-N-[(1S)-1-cyclopropylethyl]-6-methoxypyridine-3-carboxamide] | > 8.00 | +++ (+++=>500) | > 8.00 | 6.00 to 7.00 |
| COc1ncc(C(=O)N[C@@H](C)C(F)(F)F)c(N2CC[C@H](N)C2)c1-c1cc(F)cc(Cl)c1 [1-283, 4-[(3S)-3-aminopyrrolidin-1-yl]-5-(3-chloro-5-fluorophenyl)-6-methoxy-N-[(2S)-1,1,1-trifluoropropan-2-yl]pyridine-3-carboxamide] | > 8.00 | +++ (+++=>500) | > 8.00 | 6.00 to 7.00 |
| COc1ncc(C(=O)NC2CCC(F)(F)CC2)c(N2CC[C@H](N)C2)c1-c1cc(F)cc(Cl)c1 [1-284, 4-[(3S)-3-aminopyrrolidin-1-yl]-5-(3-chloro-5-fluorophenyl)-N-(4,4-difluorocyclohexyl)-6-methoxypyridine-3-carboxamide] | > 8.00 | +++ (+++=>500) | > 8.00 | 6.00 to 7.00 |
| COc1ncc(C(=O)NC2CC(F)(F)C2)c(N2CC[C@H](N)C2)c1-c1cc(F)cc(Cl)c1 [1-285, 4-[(3S)-3-aminopyrrolidin-1-yl]-5-(3-chloro-5-fluorophenyl)-N-(3,3-difluorocyclobutyl)-6-methoxypyridine-3-carboxamide] | > 8.00 | +++ (+++=>500) | > 8.00 | 6.00 to 7.00 |
| COc1ncc(C(=O)NC23CC(F)(C2)C3)c(N2CC[C@H](N)C2)c1-c1cc(F)cc(Cl)c1 [1-286, 4-[(3S)-3-aminopyrrolidin-1-yl]-5-(3-chloro-5-fluorophenyl)-N-{3-fluorobicyclo[1.1.1]pentan-1-yl}-6-methoxypyridine-3-carboxamide] | > 8.00 | +++ (+++=>500) | > 8.00 | 6.00 to 7.00 |
| Cc1ncc(C(=O)N[C@@H](C)C(F)(F)F)c(N2CC[C@](C)(N)C2)c1-c1ccc(F)c(Cl)c1 [1-287, 4-[(3S)-3-amino-3-methylpyrrolidin-1-yl]-5-(3-chloro-4-fluorophenyl)-6-methyl-N-[(2S)-1,1,1-trifluoropropan-2-yl]pyridine-3-carboxamide] | > 8.00 | +++ (+++=>500) | > 8.00 | 7.00 to 8.00 |
| Cc1ncc(C(=O)N[C@@H](C)C2CC2)c(N2CC[C@](C)(N)C2)c1-c1ccc(F)c(F)c1 [1-288, 4-[(3S)-3-amino-3-methylpyrrolidin-1-yl]-N-[(1S)-1-cyclopropylethyl]-5-(3,4-difluorophenyl)-6-methylpyridine-3-carboxamide] | > 8.00 | +++ (+++=>500) | > 8.00 | 6.00 to 7.00 |
| Cc1ncc(C(=O)N[C@@H](C)C2CC2)c(N2CC[C@](C)(N)C2)c1-c1ccc(F)c(Cl)c1 [1-289, 4-[(3S)-3-amino-3-methylpyrrolidin-1-yl]-5-(3-chloro-4-fluorophenyl)-N-[(1S)-1-cyclopropylethyl]-6-methylpyridine-3-carboxamide] | > 8.00 | +++ (+++=>500) | > 8.00 | 6.00 to 7.00 |

More lines, now with the values ahead:

| pEC50 ([1]; Table A) | Fold selectivity for SST5 vs SST2 ([1]; Table B) | pEC50 ([1]; Table B) | pEC50 [2] | SMILES |
| --- | --- | --- | --- | --- |
| > 8.00 | ++ (++=100 to 499) | > 8.00 | 6.00 to 7.00 | Cc1cccc2[nH]c(-c3cncc(C(=O)NCC(F)(F)F)c3N3CC[C@](C)(N)C3)nc12 [2-7, 4-[(3S)-3-amino-3-methylpyrrolidin-1-yl]-5-(4-methyl-1H-1,3-benzodiazol-2-yl)-N-(2,2,2-trifluoroethyl)pyridine-3-carboxamide] |
| > 8.00 | + (+=10 to 99) | > 8.00 | 7.00 to 8.00 | Cc1cccc2[nH]c(-c3cncc(C(=O)N[C@@H](C)C(F)(F)F)c3N3CC[C@](C)(N)C3)nc12 [2-11, 4-[(3S)-3-amino-3-methylpyrrolidin-1-yl]-5-(4-methyl-1H-1,3-benzodiazol-2-yl)-N-[(2S)-1,1,1-trifluoropropan-2-yl]pyridine-3-carboxamide] |
| > 8.00 | ++ (++=100 to 499) | > 8.00 | 6.00 to 7.00 | Cc1cccc2[nH]c(-c3cncc(C(=O)NC45CC(C4)C5)c3N3CC[C@](C)(N)C3)nc12 [2-15, 4-[(3S)-3-amino-3-methylpyrrolidin-1-yl]-N-{bicyclo[1,1,1]pentan-1-yl}-5-(4-methyl-1H-1,3-benzodiazol-2-yl)pyridine-3-carboxamide] |
| > 8.00 | +++ (+++=>500) | > 8.00 | 6.00 to 7.00 | Cc1cccc2[nH]c(-c3cncc(C(=O)N4C5CC6CC(C5)CC4C6)c3N3CC[C@](C)(N)C3)nc12 [2-26, (3S)-1-(3-{2-azatricyclo[3.3.1.1^3,7]decane-2-carbonyl}-5-(4-methyl-1H-1,3-benzodiazol-2-yl)pyridin-4-yl)-3-methylpyrrolidin-3-amine] |
| > 8.00 | + (+=10 to 99) | > 8.00 | 7.00 to 8.00 | Cc1cccc2[nH]c(-c3cncc(C(=O)N(C)[C@@H](C)C4CC4)c3N3CC[C@](C)(N)C3)nc12 [2-29, 4-[(3S)-3-amino-3-methylpyrrolidin-1-yl]-N-[(1S)-1-cyclopropylethyl]-N-methyl-5-(4-methyl-1H-1,3-benzodiazol-2-yl)pyridine-3-carboxamide] |
| > 8.00 | + (+=10 to 99) | > 8.00 | 7.00 to 8.00 | Cc1ccc(F)c2[nH]c(-c3cncc(C(=O)N[C@@H](C)C(F)(F)F)c3N3CC[C@](C)(N)C3)nc12 [2-30, 4-[(3S)-3-amino-3-methylpyrrolidin-1-yl]-5-(7-fluoro-4-methyl-1H-1,3-benzodiazol-2-yl)-N-[(2S)-1,1,1-trifluoropropan-2-yl]pyridine-3-carboxamide] |
| > 8.00 | ++ (++=100 to 499) | > 8.00 | 6.00 to 7.00 | Cc1cccc2[nH]c(-c3cncc(C(=O)N4CC5CCC4CC5)c3N3CC[C@](C)(N)C3)nc12 [2-35, (3S)-1-(3-{2-azabicyclo[2.2.2]octane-2-carbonyl}-5-(4-methyl-1H-1,3-benzodiazol-2-yl)pyridin-4-yl)-3-methylpyrrolidin-3-amine] |
| > 8.00 | +++ (+++=>500) | > 8.00 | 6.00 to 7.00 | Cc1cccc2[nH]c(-c3cncc(C(=O)N4CCCC4C(C)C)c3N3CC[C@](C)(N)C3)nc12 (stereo partly drawn) [2-36, (3S)-3-methyl-1-[3-(4-methyl-1H-1,3-benzodiazol-2-yl)-5-[2-(propan-2-yl)pyrrolidine-1-carbonyl]pyridin-4-yl]pyrrolidin-3-amine] |
